# Laboratory results published in US5770732A, “Pyrrolinone-based peptidomimetics” (The Trustees of the University of Pennsylvania, priority 1994, dated 1998).
# Target: T1, renin (Homo sapiens, UniProt P00797)
# T1 sequence (P00797 67-406): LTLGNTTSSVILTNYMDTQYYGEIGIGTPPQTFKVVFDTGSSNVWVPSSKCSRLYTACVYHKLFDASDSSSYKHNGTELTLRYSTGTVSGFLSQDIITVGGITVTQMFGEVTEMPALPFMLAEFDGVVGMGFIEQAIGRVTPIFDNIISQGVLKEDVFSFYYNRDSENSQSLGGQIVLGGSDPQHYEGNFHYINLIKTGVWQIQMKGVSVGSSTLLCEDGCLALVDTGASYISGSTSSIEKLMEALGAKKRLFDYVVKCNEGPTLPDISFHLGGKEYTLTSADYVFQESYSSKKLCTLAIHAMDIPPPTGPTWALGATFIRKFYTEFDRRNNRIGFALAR
# Test: Renin inhibition
# Assay type: biochemical
substance,measurement,value
[5(S)-prenyl-(5-benzyl)pyrrolin-4-one-3]-2(R)-isobutylacetate-[1-amino-1(S)-cyclohexylmethyl-2(R)3 3(S)-dihydroxy-5-methyl-hexane]-amide [Structure (10a)],concentration at which found to act as effective renin inhibitor,700 nM
